Results on two compounds are retold here after patent US12258338B2, “Modulators of the integrated stress response pathway” (EVOTEC INTERNATIONAL GMBH, priority 2019, dated 2025).

Molecules are shown by their SMILES. Where only a bound is given, the exact number is not on record here.

This assay has as its target T1, human ERG potassium channel (hERG) (Homo sapiens, UniProt Q12809).
T1 construct: expressed in transfected cells; host or cells: HEK293, stably transfected, tetracycline-inducible promoter
Kind of assay: hERG channel tail current recording using in vitro Rapid ICE (automated patch-clamp, QPatch HTX). Type of assay: cell-based. In short, it runs like this:
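Automated patch clamp on tetracycline-induced HEK293 hERG cells; pulse −80 to −50 mV 200 ms, +20 mV 4.8 s, −50 mV 5 s tail, extracellular pH 7.4. Compound at 0.3, 3, 30 μM (0.3% DMSO), 5 min exposure; tail current versus vehicle gives % inhibition and estimated IC50.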
Background: Block of hERG is tested as a sign of cardiac risk.

T1 sequence (Q12809 whole entry): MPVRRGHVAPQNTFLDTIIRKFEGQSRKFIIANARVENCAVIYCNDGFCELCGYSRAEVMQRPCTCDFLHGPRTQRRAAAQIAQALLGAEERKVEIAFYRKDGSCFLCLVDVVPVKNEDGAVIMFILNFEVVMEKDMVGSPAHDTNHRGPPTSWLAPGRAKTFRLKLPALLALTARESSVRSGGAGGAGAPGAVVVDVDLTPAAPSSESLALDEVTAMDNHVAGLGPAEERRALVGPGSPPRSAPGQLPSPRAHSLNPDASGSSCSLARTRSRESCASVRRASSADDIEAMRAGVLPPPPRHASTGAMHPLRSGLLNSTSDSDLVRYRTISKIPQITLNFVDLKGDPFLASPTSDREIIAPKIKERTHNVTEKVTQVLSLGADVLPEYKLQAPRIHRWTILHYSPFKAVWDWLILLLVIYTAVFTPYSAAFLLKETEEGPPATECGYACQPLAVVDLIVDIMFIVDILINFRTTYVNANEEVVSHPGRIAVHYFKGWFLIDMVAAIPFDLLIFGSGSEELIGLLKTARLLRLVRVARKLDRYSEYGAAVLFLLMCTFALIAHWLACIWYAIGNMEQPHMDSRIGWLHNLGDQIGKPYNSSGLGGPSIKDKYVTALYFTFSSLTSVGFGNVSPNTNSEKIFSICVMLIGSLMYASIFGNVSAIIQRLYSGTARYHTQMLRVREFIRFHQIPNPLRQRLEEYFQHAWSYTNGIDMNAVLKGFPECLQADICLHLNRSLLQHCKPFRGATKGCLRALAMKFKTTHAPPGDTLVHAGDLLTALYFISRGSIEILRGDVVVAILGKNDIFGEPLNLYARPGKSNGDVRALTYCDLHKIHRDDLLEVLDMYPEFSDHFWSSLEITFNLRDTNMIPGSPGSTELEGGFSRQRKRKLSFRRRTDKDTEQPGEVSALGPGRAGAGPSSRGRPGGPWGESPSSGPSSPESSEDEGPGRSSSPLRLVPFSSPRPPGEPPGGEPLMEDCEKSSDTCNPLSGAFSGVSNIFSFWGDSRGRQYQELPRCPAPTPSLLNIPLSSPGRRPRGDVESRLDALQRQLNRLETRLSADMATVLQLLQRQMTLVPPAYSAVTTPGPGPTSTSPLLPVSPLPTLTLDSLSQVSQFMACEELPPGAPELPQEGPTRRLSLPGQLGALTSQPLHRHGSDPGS

Take `O=C(COc1ccc(Cl)c(F)c1)N[C@H]1CC[C@H](c2nnc([C@H]3C[C@@H](OC(F)(F)F)C3)o2)NC1` [Example 50, 2-(4-chloro-3-fluorophenoxy)-N-[(3S,6R)-6-{5-[(1s,3s)-3-(trifluoromethoxy)cyclobutyl]-1,3,4-oxadiazol-2-yl}piperidin-3-yl]acetamide]: the IC50 (commonly the concentration needed to halve the response being measured) reads like this: (Table 24) 1 to 5 µM; (Table 26) above 5 µM.
Take `O=C(COc1ccc(Cl)c(F)c1)N[C@H]1CC[C@H](c2nnc(COC(F)(F)F)o2)NC1` [Example 61, 2-(4-chloro-3-fluorophenoxy)-N-[(3S,6R)-6-(5-[(trifluoromethoxy)methyl]-1,3,4-oxadiazol-2-yl}piperidin-3-yl]acetamide]: the 50% inhibitory concentration (IC50) was in the range of 1 to 5 µM (Table 24) and 1 to 5 µM (Table 26).
